Reference: PMC3577938 (Organic & biomolecular chemistry, 2013)

Tests used:
[1] = target: T1, human TLR8 (Homo sapiens, UniProt Q9NR97); assay: Human TLR8-specific reporter gene assay; type: cell-based; conditions: for TLR8-agonistic potency/activity (in words): hTLR8 reporter gene assay; for Agonistic Activity (μM) TLR8: EC50 in human TLR8-specific reporter gene assay, Inactive = EC50 >100 μM
T1 sequence (Q9NR97 27-1041): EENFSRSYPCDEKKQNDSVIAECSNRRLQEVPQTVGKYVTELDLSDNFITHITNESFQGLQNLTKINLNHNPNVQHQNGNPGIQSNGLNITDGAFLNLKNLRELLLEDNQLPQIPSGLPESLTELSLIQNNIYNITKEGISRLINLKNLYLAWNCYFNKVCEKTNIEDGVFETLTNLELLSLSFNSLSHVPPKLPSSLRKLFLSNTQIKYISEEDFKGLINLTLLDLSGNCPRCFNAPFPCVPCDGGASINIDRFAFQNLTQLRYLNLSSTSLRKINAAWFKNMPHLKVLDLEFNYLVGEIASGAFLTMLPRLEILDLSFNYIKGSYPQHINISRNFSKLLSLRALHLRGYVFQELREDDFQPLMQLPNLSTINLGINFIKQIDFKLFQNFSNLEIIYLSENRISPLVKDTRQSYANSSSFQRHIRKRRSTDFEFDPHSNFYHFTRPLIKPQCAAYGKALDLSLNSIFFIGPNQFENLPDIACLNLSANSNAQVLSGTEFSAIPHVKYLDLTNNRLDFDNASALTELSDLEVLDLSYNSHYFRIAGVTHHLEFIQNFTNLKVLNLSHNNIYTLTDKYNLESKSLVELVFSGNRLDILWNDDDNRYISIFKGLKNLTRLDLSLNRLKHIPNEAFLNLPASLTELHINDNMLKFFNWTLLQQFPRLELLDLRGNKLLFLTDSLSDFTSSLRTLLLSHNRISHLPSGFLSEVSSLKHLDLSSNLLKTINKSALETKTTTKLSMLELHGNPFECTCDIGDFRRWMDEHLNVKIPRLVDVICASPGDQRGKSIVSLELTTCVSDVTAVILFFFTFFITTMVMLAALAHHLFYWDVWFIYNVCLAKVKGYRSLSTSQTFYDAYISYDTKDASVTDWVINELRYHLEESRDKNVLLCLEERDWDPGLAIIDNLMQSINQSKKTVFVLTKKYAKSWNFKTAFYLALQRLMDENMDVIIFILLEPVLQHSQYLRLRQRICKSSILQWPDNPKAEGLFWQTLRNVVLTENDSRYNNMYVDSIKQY

[2] = target: T2, human TLR7 (Homo sapiens, UniProt Q9NYK1); assay: Human TLR7-specific reporter gene assay; type: cell-based; conditions: for Agonistic Activity (μM) TLR7: EC50 in human TLR7-specific reporter gene assay, Inactive = EC50 >100 μM
T2 sequence (Q9NYK1 27-1049): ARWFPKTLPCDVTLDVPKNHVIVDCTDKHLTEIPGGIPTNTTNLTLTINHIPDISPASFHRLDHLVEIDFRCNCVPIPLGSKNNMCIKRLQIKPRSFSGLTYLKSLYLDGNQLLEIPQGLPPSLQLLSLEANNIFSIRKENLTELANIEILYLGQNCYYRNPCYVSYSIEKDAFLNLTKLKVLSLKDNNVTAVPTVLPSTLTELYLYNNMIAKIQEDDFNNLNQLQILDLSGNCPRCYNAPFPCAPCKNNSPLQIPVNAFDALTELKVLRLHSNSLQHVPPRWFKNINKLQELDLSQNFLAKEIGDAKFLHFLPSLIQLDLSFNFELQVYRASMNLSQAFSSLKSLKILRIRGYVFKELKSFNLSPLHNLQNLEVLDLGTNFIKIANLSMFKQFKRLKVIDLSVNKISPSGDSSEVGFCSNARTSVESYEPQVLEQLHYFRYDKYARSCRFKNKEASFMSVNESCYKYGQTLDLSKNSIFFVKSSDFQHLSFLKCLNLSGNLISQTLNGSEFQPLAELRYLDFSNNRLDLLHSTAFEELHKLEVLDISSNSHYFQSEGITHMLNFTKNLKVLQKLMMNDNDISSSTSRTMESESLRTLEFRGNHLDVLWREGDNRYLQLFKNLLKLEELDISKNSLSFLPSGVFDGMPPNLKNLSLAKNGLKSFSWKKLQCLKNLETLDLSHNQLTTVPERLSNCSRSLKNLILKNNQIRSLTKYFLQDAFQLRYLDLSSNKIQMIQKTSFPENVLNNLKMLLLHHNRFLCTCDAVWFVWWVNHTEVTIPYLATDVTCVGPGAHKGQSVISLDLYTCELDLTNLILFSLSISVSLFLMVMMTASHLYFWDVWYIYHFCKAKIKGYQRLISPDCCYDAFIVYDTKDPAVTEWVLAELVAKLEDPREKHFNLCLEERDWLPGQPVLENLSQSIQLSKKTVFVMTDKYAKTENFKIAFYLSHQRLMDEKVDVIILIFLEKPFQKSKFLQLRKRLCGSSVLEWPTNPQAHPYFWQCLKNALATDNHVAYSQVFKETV

Row | TLR8-agonistic potency/activity (in words) [1] | Agonistic Activity (μM) TLR7 [2] | Agonistic Activity (μM) TLR8 [1] | attenuation of activity in TLR7-specific reporter gene assays ([2]; isopropyl at C2, fold attenuation) | reduction in TLR8-agonistic potency ([1]; isopropyl at C2, fold reduction) | SMILES
1 |  | Inactive | Inactive |  |  | CCCCCCCCCCCCCCCCNc1nc2ccccc2c2sc(CCC)nc12 [Compound 15c, N-hexadecyl-2-propylthiazolo[4,5-c]quinolin-4-amine]
2 | virtually inactive | Inactive |  |  |  | CCCc1nc2c(NC(C)=O)nc3ccccc3c2s1 [Compound 15e, N-(2-propylthiazolo[4,5-c]quinolin-4-yl)acetamide]
3 |  | Inactive |  |  |  | CCCc1nc2c(NC(=O)CCN=[N+]=[N-])nc3ccccc3c2s1 [Compound 15k, 3-azido-N-(2-propylthiazolo[4,5-c]quinolin-4-yl)propanamide]
4 |  | Inactive |  |  |  | C#CCCC(=O)Nc1nc2ccccc2c2sc(CCC)nc12 [Compound 15l, N-(2-propylthiazolo[4,5-c]quinolin-4-yl)pent-4-ynamide]
5 |  | Inactive | Weak |  |  | CCCc1nc2c(NC(=O)OC)nc3ccccc3c2s1 [Compound 15m, methyl (2-propylthiazolo[4,5-c]quinolin-4-yl)carbamate]
6 |  | Inactive | Inactive |  |  | CCCc1nc2c(NC(=O)OCC)nc3ccccc3c2s1 [Compound 15n, ethyl (2-propylthiazolo[4,5-c]quinolin-4-yl)carbamate]
7 |  | Inactive | Inactive |  |  | CCCCOC(=O)Nc1nc2ccccc2c2sc(CCC)nc12 [Compound 15o, butyl (2-propylthiazolo[4,5-c]quinolin-4-yl)carbamate]
8 |  | Inactive | Inactive |  |  | CCCCCCCCOC(=O)Nc1nc2ccccc2c2sc(CCC)nc12 [Compound 15p, octyl (2-propylthiazolo[4,5-c]quinolin-4-yl)carbamate]
9 |  | Inactive |  |  |  | CCCc1nc2c(NS(C)(=O)=O)nc3ccccc3c2s1 [Compound 15r, N-(2-propylthiazolo[4,5-c]quinolin-4-yl)methanesulfonamide]
10 |  | Inactive | Inactive |  |  | CCCc1nc2c(NS(=O)(=O)CC)nc3ccccc3c2s1 [Compound 15s, N-(2-propylthiazolo[4,5-c]quinolin-4-yl)ethanesulfonamide]
11 |  | Inactive | Inactive |  |  | CCCc1nc2c(NS(=O)(=O)CCC)nc3ccccc3c2s1 [Compound 15t, N-(2-propylthiazolo[4,5-c]quinolin-4-yl)propane-1-sulfonamide]
12 |  | Inactive | Inactive |  |  | CCCCS(=O)(=O)Nc1nc2ccccc2c2sc(CCC)nc12 [Compound 15u, N-(2-propylthiazolo[4,5-c]quinolin-4-yl)butane-1-sulfonamide]
13 |  | Inactive | Inactive |  |  | CCCc1nc2c(NS(=O)(=O)c3ccc(C)cc3)nc3ccccc3c2s1 [Compound 15v, 4-methyl-N-(2-propylthiazolo[4,5-c]quinolin-4-yl)benzenesulfonamide]

Further lines, the molecule ahead of its results:

Row | SMILES | TLR8-agonistic potency/activity (in words) [1] | Agonistic Activity (μM) TLR7 [2] | Agonistic Activity (μM) TLR8 [1] | attenuation of activity in TLR7-specific reporter gene assays ([2]; isopropyl at C2, fold attenuation) | reduction in TLR8-agonistic potency ([1]; isopropyl at C2, fold reduction)
14 | CCCCCc1nc2c(N)nc3ccccc3c2s1 [Compound 8e, 2-pentylthiazolo[4,5-c]quinolin-4-amine] | attenuation of potency |  |  |  | 
15 | CCCCCCc1nc2c(N)nc3ccccc3c2s1 [Compound 8f, 2-hexylthiazolo[4,5-c]quinolin-4-amine] |  | Inactive | Inactive^a |  | 
16 | CCCCCCCc1nc2c(N)nc3ccccc3c2s1 [Compound 8g, 2-heptylthiazolo[4,5-c]quinolin-4-amine] |  | Inactive | Inactive |  | 
17 | CCCCCCCCCc1nc2c(N)nc3ccccc3c2s1 [Compound 8h, 2-nonylthiazolo[4,5-c]quinolin-4-amine] |  | Inactive | Inactive |  | 
18 | CC(C)c1nc2c(N)nc3ccccc3c2s1 [Compound 8i, 2-isopropylthiazolo[4,5-c]quinolin-4-amine] |  |  |  | about two-fold | approximately ten-fold
19 | Nc1nc2ccccc2c2sc(CCCC(F)(F)F)nc12 [Compound 8q, 2-(4,4,4-trifluorobutyl)thiazolo[4,5-c]quinolin-4-amine] | decrease in potency |  |  |  | 
20 | CCCc1nc2c(N)nc3ccc(-n4cc(C(C)(C)O)nn4)cc3c2s1 [Compound 12a, 2-(1-(4-amino-2-propylthiazolo[4,5-c]quinolin-8-yl)-1H-1,2,3-triazol-4-yl)propan-2-ol] |  | Inactive | Inactive |  | 
21 | CCCc1nc2c(N)nc3ccc(-n4cc(CO)nn4)cc3c2s1 [Compound 12b, (1-(4-amino-2-propylthiazolo[4,5-c]quinolin-8-yl)-1H-1,2,3-triazol-4-yl)methanol] |  | Inactive | Inactive |  | 
22 | CCCc1nc2c(N)nc3ccc(-n4cc(-c5ccccc5)nn4)cc3c2s1 [Compound 12c, 8-(4-phenyl-1H-1,2,3-triazol-1-yl)-2-propylthiazolo[4,5-c]quinolin-4-amine] |  | Inactive | Inactive |  | 
23 | CCCc1cn(-c2ccc3nc(N)c4nc(CCC)sc4c3c2)nn1 [Compound 12d, 2-propyl-8-(4-propyl-1H-1,2,3-triazol-1-yl)thiazolo[4,5-c]quinolin-4-amine] |  | Inactive | Inactive |  | 
24 | CCCCCc1cn(-c2ccc3nc(N)c4nc(CCC)sc4c3c2)nn1 [Compound 12e, 8-(4-pentyl-1H-1,2,3-triazol-1-yl)-2-propylthiazolo[4,5-c]quinolin-4-amine] |  | Inactive | Inactive |  | 
25 | CCCc1nc2c(N)nc3ccc(-n4cc([Si](C)(C)C)nn4)cc3c2s1 [Compound 12f, 2-propyl-8-(4-(trimethylsilyl)-1H-1,2,3-triazol-1-yl)thiazolo[4,5-c]quinolin-4-amine] |  | Inactive |  |  | 
26 | CCCc1nc2c(N)nc3ccc(-n4ccnn4)cc3c2s1 [Compound 12g, 2-propyl-8-(1H-1,2,3-triazol-1-yl)thiazolo[4,5-c]quinolin-4-amine] |  | Inactive | Inactive |  | 
